Experimental data published in article PMC9584906, “Cryo-EM structures of thermostabilized prestin provide mechanistic insights underlying outer hair cell electromotility” (Nature Communications, 2022).

Key:
[1] = biological target: T1, HgPres (naked mole-rat prestin) (Heterocephalus glaber, UniProt A0AAX6NYL9); test: whole-cell nonlinear capacitance (NLC); assay type: cell-based; settings: 10 mM salicylate in bath; HEK293T cells; room temperature; pH 7.3
T1 construct: gene Slc26a5
T1 sequence (A0AAX6NYL9 1-744): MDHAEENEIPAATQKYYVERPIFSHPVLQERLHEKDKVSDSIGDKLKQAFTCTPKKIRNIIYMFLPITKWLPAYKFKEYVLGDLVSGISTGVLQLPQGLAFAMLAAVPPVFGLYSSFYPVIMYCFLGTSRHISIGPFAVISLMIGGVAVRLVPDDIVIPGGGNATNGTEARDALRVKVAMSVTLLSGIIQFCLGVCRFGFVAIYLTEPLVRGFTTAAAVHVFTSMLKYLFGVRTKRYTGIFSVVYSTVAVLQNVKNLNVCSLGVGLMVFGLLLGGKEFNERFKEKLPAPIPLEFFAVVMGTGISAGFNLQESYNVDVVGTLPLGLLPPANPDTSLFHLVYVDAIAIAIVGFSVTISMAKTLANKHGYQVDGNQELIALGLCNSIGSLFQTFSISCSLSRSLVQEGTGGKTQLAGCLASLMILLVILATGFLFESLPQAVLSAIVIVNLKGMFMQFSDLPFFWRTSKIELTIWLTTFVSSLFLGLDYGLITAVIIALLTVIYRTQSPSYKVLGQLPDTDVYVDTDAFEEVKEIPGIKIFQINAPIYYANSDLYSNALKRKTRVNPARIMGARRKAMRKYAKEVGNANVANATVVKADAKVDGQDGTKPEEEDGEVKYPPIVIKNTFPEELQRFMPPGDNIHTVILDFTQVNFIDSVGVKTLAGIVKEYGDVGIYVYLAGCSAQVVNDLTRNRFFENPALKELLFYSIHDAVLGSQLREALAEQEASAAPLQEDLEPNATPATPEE

[2] = biological target: T2, hPres (human prestin, SLC26A5) (Homo sapiens, UniProt P58743); test: isothermal titration calorimetry; assay type: binding
T2 construct: full-length; C-terminal TEV-FLAG-EGFP tag cleaved off; HEK293S GnTI- (BacMam); digitonin micelles
T2 sequence (P58743 1-744): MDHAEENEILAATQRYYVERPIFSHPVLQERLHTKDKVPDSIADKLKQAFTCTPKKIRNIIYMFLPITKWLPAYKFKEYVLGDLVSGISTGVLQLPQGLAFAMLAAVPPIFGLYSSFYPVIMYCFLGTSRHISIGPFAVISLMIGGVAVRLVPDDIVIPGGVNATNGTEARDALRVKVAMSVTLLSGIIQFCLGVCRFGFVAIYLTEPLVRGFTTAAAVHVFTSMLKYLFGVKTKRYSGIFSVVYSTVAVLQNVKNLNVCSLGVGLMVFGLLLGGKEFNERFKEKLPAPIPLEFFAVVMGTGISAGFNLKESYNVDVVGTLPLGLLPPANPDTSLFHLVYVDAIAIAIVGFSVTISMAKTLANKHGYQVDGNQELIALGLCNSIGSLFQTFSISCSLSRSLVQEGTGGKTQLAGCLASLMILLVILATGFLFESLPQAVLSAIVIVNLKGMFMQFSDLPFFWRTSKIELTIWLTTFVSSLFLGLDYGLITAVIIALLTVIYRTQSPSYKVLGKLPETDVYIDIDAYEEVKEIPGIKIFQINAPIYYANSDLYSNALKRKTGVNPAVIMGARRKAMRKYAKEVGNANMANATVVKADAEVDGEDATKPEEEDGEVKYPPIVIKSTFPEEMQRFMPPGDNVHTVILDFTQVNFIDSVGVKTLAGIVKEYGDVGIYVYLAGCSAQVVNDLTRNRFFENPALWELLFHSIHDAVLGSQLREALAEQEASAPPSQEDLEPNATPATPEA

## O=C(O)c1ccccc1O [salicylate]
[1]
  effect on NLC at 10 mM: The effect of salicylate on the NLC of WT (left) and S398A-HgPres (right)
[2]
  Kd: 7.08 mM
